Twelve compounds from patent US11787796B2, “Plasma Kallikrein inhibitors and uses thereof” (Takeda Pharmaceutical Company Limited, priority 2019, dated 2023) can be followed below.

The assay concerns the target human activated kallikrein enzyme (Homo sapiens (Human), UniProt P03952). Briefly: Plasma kallikrein inhibition assay with fluorogenic peptide substrate, 500 pM activated kallikrein format. It is filed as biochemical. The conditions noted are these: 500 pM activated kallikrein; 300 uM Pro-Phe-Arg-7-amido-4-methylcoumarin substrate; 30 min preincubation, 10 min reaction at RT; read-out: Primary Dose Response Assay: Average EC50. A digest of the protocol:
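Pro-Phe-Arg-7-amido-4-methylcoumarin substrate (300 uM) started reactions after a 30 min RT enzyme–inhibitor preincubation. This format used 500 pM activated human kallikrein in Tris pH 7.5 buffer with EDTA, NaCl, PEG-400 and Triton X-100. AMC fluorescence (380/460 nm) was measured after 10 min at RT.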

Sequence of human activated kallikrein enzyme (P03952 391-638): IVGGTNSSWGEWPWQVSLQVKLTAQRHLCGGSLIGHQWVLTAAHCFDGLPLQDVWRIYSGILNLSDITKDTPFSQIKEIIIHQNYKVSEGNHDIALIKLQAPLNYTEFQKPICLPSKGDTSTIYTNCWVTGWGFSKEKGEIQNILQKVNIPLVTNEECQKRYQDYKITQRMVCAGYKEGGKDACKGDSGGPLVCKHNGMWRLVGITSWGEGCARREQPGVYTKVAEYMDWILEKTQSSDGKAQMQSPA
Sequence of human activated kallikrein enzyme (P03952 20-390 partner): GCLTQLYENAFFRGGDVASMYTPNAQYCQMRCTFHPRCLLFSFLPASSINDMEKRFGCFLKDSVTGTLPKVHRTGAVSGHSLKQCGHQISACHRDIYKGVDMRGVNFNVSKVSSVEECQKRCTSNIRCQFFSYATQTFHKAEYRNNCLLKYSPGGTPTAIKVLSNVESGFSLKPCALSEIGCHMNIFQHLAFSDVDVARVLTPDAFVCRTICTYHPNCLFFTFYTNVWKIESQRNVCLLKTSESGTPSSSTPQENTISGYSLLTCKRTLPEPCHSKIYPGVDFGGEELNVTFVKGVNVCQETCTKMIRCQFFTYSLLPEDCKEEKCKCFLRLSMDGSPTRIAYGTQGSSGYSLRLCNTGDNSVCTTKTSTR

As for `CN1CCN(c2cc(C3CC3)cn3cc(Cn4cc(C(=O)NCc5nccc(OC(F)F)c5F)nn4)nc23)CC1` [Example I-153], the EC50 (commonly the concentration that produces a half-maximal response) was in the range of 1 to 10 nM.

Take `COc1ccc(-n2cncn2)c(CNC(=O)c2cn(Cc3cn4cc(C5CC5)ccc4n3)nn2)c1F` [Example I-61, 1-((6-cyclopropylimidazo[1,2-a]pyridin-2-yl)methyl)-N-(2-fluoro-3-methoxy-6-(1H-1,2,4-triazol-1-yl)benzyl)-1H-1,2,3-triazole-4-carboxamide]: the EC50 was at most 1 nM.

With `COc1ccc(-n2cnnn2)c(CNC(=O)c2nnn(Cc3cn4cc(C5CC5)cc(F)c4n3)n2)c1F` [Example I-69, 2-((6-cyclopropyl-8-fluoroimidazo[1,2-a]pyridin-2-yl)methyl)-N-(2-fluoro-3-methoxy-6-(1H-tetrazol-1-yl)benzyl)-2H-tetrazole-5-carboxamide], the EC50 is at most 1 nM.

Take `O=S(=O)(NCc1ccc(Cl)cc1)c1cnn(Cc2cn3cc(C4CC4)ccc3n2)c1` [Example I-42, N-(4-chlorobenzyl)-1-((6-cyclopropylimidazo[1,2-a]pyridin-2-yl)methyl)-1H-pyrazole-4-sulfonamide]: the EC50 is above 7100 nM.

On to `COc1ccc(-n2cnnn2)c(CNC(=O)c2cn(Cc3cn4cc(C5CC5)cc(CC(C)(C)C(=O)O)c4n3)nn2)c1F` [Example I-81, 3-(6-cyclopropyl-2-((4-((2-fluoro-3-methoxy-6-(1H-tetrazol-1-yl)benzyl)carbamoyl)-1H-1,2,3-triazol-1-yl)methyl)imidazo[1,2-a]pyridin-8-yl)-2,2-dimethylpropanoic acid], for which the EC50 is at most 1 nM.

Take `CCOC(=O)CCc1cc(C2CC2)cn2cc(Cn3cc(C(=O)NCc4c(-n5cnnn5)ccc(Cl)c4F)nn3)nc12` [Example I-113, ethyl 3-(2-((4-((3-chloro-2-fluoro-6-(1H-tetrazol-1-yl)benzyl)carbamoyl)-1H-1,2,3-triazol-1-yl)methyl)-6-cyclopropylimidazo[1,2-a]pyridin-8-yl)propanoate]: the half-maximal effective concentration (EC50) is at most 1 nM.

As to `Cc1cc(C(=N)N)cc(C)c1CNC(=O)c1cnn(Cc2cn3cc(C4CC4)ccc3n2)c1` [Example I-103, N-(4-carbamimidoyl-2,6-dimethylbenzyl)-1-((6-cyclopropylimidazo[1,2-a]pyridin-2-yl)methyl)-1H-pyrazole-4-carboxamide], the concentration for a half-maximal effect (EC50) is at most 1 nM.

`O=C(NCc1ncc2c(F)cc(Cl)cn12)c1cnn(Cc2cn3cc(C4CC4)ccc3n2)c1` [Example I-137, N-((6-chloro-8-fluoroimidazo[1,5-a]pyridin-3-yl)methyl)-1-((6-cyclopropylimidazo[1,2-a]pyridin-2-yl)methyl)-1H-pyrazole-4-carboxamide]: the EC50 was in the range of 100 to 2000 nM.

With `O=C(NCc1cccc2ccc(Br)cc12)c1cnn(Cc2cn3cc(C4CC4)ccc3n2)c1` [Example I-133, N-((7-bromonaphthalen-1-yl)methyl)-1-((6-cyclopropylimidazo[1,2-a]pyridin-2-yl)methyl)-1H-pyrazole-4-carboxamide], the half-maximal effective concentration (EC50) lay in the range of 2000 to 7100 nM.

On to `O=C(NCc1cn(Cc2cn3cc(C4CC4)ccc3n2)nn1)c1ncc2c(F)c(Cl)ccn12` [Example I-56, 7-chloro-N-((1-((6-cyclopropylimidazo[1,2-a]pyridin-2-yl)methyl)-1H-1,2,3-triazol-4-yl)methyl)-8-fluoroimidazo[1,5-a]pyridine-3-carboxamide], for which the half-maximal effective concentration (EC50) was above 7100 nM.

Regarding `COc1ccc([S+](C)[O-])c(CNC(=O)c2cn(Cc3cn4cc(C5CC5)ccc4n3)nn2)c1F` (stereo not drawn) [Example I-58, 1-((6-cyclopropylimidazo[1,2-a]pyridin-2-yl)methyl)-N-(2-fluoro-3-methoxy-6-(methylsulfinyl)benzyl)-1H-1,2,3-triazole-4-carboxamide], the concentration giving a half-maximal response (EC50) fell in the range of 2000 to 7100 nM.

Consider `COc1ccc(F)c(CNC(=O)c2cn(Cc3cn4cc(C5CC5)cc(COCCN(C)C)c4n3)nn2)c1F` [Example I-8, 1-((6-cyclopropyl-8-((2-(dimethylamino)ethoxy)methyl)imidazo[1,2-a]pyridin-2-yl)methyl)-N-(2,6-difluoro-3-methoxybenzyl)-1H-1,2,3-triazole-4-carboxamide], for which the EC50 fell in the range of 1 to 10 nM.
